Drawing on PubChem BioAssay (NCI), this text covers GI50 and TGI for four compounds.

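Dose response: 5 concentrations. Exposure: 48 h. Format: 96-well plates. Endpoint: linear interpolation; highest concentration if not reached. The concentration for 50% growth inhibition is given as GI50. TGI: concentration producing complete growth inhibition.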 Some results are limits rather than exact numbers.

Test systems include KM12 colon; A549 NSCLC; SK-MEL-2 melanoma; NCI-H23 lung; UACC-257 melanoma; ACHN renal; RPMI-8226 leukemia; SF-295 CNS; HOP-62 NSCLC; LOX IMVI melanoma.
Test in all cases: NCI anticancer screen, dose series, 48 h

Regarding `CO[C@H](C(=O)N[C@@H](CCCCNC(=O)OCc1ccccc1)C(=O)OC(C)(C)C)[C@@H]1Cc2cc3cc(OC4CC(OC5CC(O)C(O)C(C)O5)C(O)C(C)O4)c(C)c(O)c3c(O)c2C(=O)[C@H]1OC1CC(OC2CC(OC3CC(C)(O)C(O)C(C)O3)C(O)C(C)O2)C(O)C(C)O1` (stereo not given in full), the GI50 in the test with KM12 colon was 0.603 µM; in the test with A549 NSCLC, 0.821 µM; in the test on SK-MEL-2 melanoma it was 0.942 µM; in the test on NCI-H23 lung, 0.667 µM; with UACC-257 melanoma, 0.812 µM; in the test with ACHN renal, 0.67 µM. Moreover, the GI50 in the test on RPMI-8226 leukemia was 0.487 µM; in the test on SF-295 CNS, 0.468 µM; with HOP-62 NSCLC it was 0.464 µM; in the test on LOX IMVI melanoma, 0.434 µM. The TGI in the test on KM12 colon was 2.05 µM; in the test with A549 NSCLC it was 5.28 µM; in the test on SK-MEL-2 melanoma, 3.29 µM; in the test on NCI-H23 lung it was 2.37 µM; in the test with UACC-257 melanoma it was 4.01 µM; with ACHN renal it was 4.45 µM. Besides, the TGI was found to be 3.65 µM with RPMI-8226 leukemia, 1.72 µM with SF-295 CNS, 2.73 µM in the test with HOP-62 NSCLC and 2.4 µM in the test with LOX IMVI melanoma.
Regarding `Cc1ccc2sc3c(NCCCNCCO)nc4ccccc4c3c(=O)c2c1`, the GI50 in the test on KM12 colon is 1.73 µM; with A549 NSCLC, 1.78 µM; in the test with SK-MEL-2 melanoma, 1.73 µM; in the test on NCI-H23 lung it was 1.74 µM; with UACC-257 melanoma, 1.87 µM; in the test with ACHN renal, 1.6 µM. Further, the GI50 in the test on RPMI-8226 leukemia was 1.57 µM; with SF-295 CNS, 1.77 µM; in the test on HOP-62 NSCLC, 1.27 µM; with LOX IMVI melanoma, 1.49 µM. Also, the TGI worked out at 3.21 µM in the test with KM12 colon; 3.63 µM in the test with A549 NSCLC; 3.36 µM in the test with SK-MEL-2 melanoma; 3.35 µM in the test with NCI-H23 lung; 3.76 µM with UACC-257 melanoma; 2.98 µM in the test with ACHN renal. In addition, the TGI in the test on RPMI-8226 leukemia was 3.38 µM; in the test with SF-295 CNS, 3.24 µM; in the test with HOP-62 NSCLC it was 2.87 µM; with LOX IMVI melanoma it was 2.94 µM.
Take `CCOC(=O)/C=C1\Nc2ccccc2-n2nnnc21`: the TGI in the test with KM12 colon, in the test with A549 NSCLC, in the test on SK-MEL-2 melanoma, in the test with NCI-H23 lung, in the test with UACC-257 melanoma and in the test with ACHN renal was > 100 µM in each case. Also, the TGI with RPMI-8226 leukemia, in the test with SF-295 CNS, in the test with HOP-62 NSCLC and in the test on LOX IMVI melanoma was > 100 µM in each case.
As for `COC(=O)Nc1nc2ccc(Oc3ccc(NC(=O)Nc4cccc(Cl)c4)cc3)cc2[nH]1`, the GI50 with KM12 colon is 0.147 µM; with A549 NSCLC it was 2.02 µM; with SK-MEL-2 melanoma it was 1.07 µM; in the test with NCI-H23 lung, 2.24 µM; in the test on UACC-257 melanoma, 1.7 µM; in the test on ACHN renal, 2.23 µM. Further, the GI50 with RPMI-8226 leukemia is 1.64 µM; with SF-295 CNS, 0.777 µM; with HOP-62 NSCLC, 0.9 µM; in the test on LOX IMVI melanoma it was 1.42 µM. In addition, the TGI in the test on KM12 colon was 3.8 µM; in the test on A549 NSCLC, 8.87 µM; with SK-MEL-2 melanoma, 8.06 µM; in the test on NCI-H23 lung, 12.9 µM; in the test on UACC-257 melanoma, 19.5 µM; in the test with ACHN renal, > 18.6 µM. The TGI was > 25 µM in the test with RPMI-8226 leukemia, 6.59 µM in the test on SF-295 CNS, 4.73 µM in the test with HOP-62 NSCLC and 6.6 µM in the test with LOX IMVI melanoma.
